# In patent US10947213B1 (Merck Patent GmbH, priority 2015, dated 2021):
# Biological target: T1, TLR7/NFKb HEK cells (Homo sapiens, UniProt Q9NYK1)
# T1 construct: expressed in transfected cells; host or cells: HEK cells (TLR7/NFKb reporter line)
# T1 sequence (Q9NYK1 27-1049): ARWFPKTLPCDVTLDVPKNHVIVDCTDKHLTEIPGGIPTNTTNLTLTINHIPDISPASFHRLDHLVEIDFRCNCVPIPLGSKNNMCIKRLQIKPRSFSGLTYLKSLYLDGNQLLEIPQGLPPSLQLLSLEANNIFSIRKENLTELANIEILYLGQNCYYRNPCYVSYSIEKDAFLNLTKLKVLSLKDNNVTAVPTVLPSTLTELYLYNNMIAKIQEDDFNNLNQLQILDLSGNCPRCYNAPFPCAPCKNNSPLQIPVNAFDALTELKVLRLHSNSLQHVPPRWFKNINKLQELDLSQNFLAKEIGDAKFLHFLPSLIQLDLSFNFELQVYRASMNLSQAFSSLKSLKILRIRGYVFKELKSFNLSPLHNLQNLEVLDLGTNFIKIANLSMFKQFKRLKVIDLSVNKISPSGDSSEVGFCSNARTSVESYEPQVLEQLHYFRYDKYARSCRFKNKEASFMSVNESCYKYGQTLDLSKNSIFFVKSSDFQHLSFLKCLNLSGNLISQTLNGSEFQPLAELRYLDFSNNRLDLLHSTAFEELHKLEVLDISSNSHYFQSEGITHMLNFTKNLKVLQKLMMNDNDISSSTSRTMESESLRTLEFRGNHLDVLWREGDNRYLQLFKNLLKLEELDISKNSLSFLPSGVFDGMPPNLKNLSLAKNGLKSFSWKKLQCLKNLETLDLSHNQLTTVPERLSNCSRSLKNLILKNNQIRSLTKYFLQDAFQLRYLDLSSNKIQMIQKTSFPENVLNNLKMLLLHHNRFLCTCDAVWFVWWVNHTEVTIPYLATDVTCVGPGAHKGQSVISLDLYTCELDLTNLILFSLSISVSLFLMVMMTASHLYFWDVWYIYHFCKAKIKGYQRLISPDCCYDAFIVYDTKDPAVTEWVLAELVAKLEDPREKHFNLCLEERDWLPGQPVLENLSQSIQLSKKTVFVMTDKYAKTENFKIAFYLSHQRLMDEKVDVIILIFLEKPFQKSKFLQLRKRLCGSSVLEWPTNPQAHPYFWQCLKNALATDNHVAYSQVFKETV
# Experiment: HEK Cell Assay (TLR7/NFKb reporter, Steady-Glo luciferase readout)
# Assay type: cell-based
# Conditions: 30 min compound preincubation, then R*48 agonist for 5 hours, read-out: Potency
# In short: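 Steady-Glo luminescence after 5 h stimulation with R*48 agonist, following 30 min compound preincubation. Assay run in HEK cells carrying a TLR7/NFKb luciferase reporter, plated at 5000 cells/well and grown 24 h at 37° C (10% CO2) before treatment.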
row,SMILES,IC50 [nM]
1,"C[C@H]1C[C@@H](N)CN(c2ccc(F)c3ncccc23)C1 [Compound 341, (3R,5S)-1-(8-fluoroquinolin-5-yl)-5-methylpiperidin-3-amine]",< 1000
2,"C[C@H]1C[C@@H](N)CN(c2c(F)cc(C#N)c3nccnc23)C1 [Compound 342, 8-[(3R,5S)-3-amino-5-methylpiperidin-1-yl]-7-fluoroquinoxaline-5-carbonitrile]",1000 to 10000
3,"C[C@H]1C[C@@H](NC(=O)CC(C)(C)C)CN(c2c(F)cc(C#N)c3nccnc23)C1 [Compound 343, N-[(3R,5S)-1-(8-cyano-6-fluoroquinoxalin-5-yl)-5-methylpiperidin-3-yl]-3,3-dimethylbutanamide]",1000 to 10000
4,"COCCN[C@@H]1C[C@H](C)CN(c2c(F)cc(C#N)c3nccnc23)C1 [Compound 344, 7-fluoro-8-[(3R,5S)-3-[(2-methoxyethyl)amino]-5-methylpiperidin-1-yl]quinoxaline-5-carbonitrile]",1000 to 10000
5,"C[C@H]1C[C@@H](NC(=O)CN(C)C)CN(c2c(F)cc(C#N)c3nccnc23)C1 [Compound 347, N-[(3R,5S)-1-(8-cyano-6-fluoroquinoxalin-5-yl)-5-methylpiperidin-3-yl]-2-(dimethylamino)acetamide]",1000 to 10000
6,"C[C@H]1C[C@@H](NC(=O)CN2CCC(F)(F)CC2)CN(c2ccc(C#N)c3nccnc23)C1 [Compound 348, N-[(3R,5S)-1-(8-cyanoquinoxalin-5-yl)-5-methylpiperidin-3-yl]-2-(4,4-difluoropiperidin-1-yl)acetamide]",< 1000
7,"C[C@H]1C[C@@H](NC(=O)C(C)(C)C2CCN(C)CC2)CN(c2ccc(C#N)c3nccnc23)C1 [Compound 349, N-[(3R,5S)-1-(8-cyanoquinoxalin-5-yl)-5-methylpiperidin-3-yl]-2-methyl-2-(1-methylpiperidin-4-yl)propanamide]",< 1000
8,"C[C@H]1C[C@@H](NC(=O)CN2CCC(F)(F)CC2)CN(c2ccc(C(F)(F)F)c3ncccc23)C1 [Compound 350, 2-(4,4-difluoropiperidin-1-yl)-N-[(3R,5S)-5-methyl-1-[8-(trifluoromethyl)quinolin-5-yl]piperidin-3-yl]acetamide]",< 1000
9,"C[C@H]1C[C@@H](NC(=O)C(C)(C)C2CCN(C)CC2)CN(c2ccc(C(F)(F)F)c3ncccc23)C1 [Compound 351, 2-methyl-N-[(3R,5S)-5-methyl-1-[8-(trifluoromethyl)quinolin-5-yl]piperidin-3-yl]-2-(1-methylpiperidin-4-yl)propanamide]",< 1000
10,"C[C@H]1C[C@@H](NC(=O)CN2CCC(F)(F)CC2)CN(c2ccc(C(F)(F)F)c3nccnc23)C1 [Compound 354, 2-(4,4-difluoropiperidin-1-yl)-N-[(3R,5S)-5-methyl-1-[8-(trifluoromethyl)quinoxalin-5-yl]piperidin-3-yl]acetamide]",1000 to 10000
11,"C[C@H]1C[C@@H](NC(=O)C(C)(C)C2CCN(C)CC2)CN(c2ccc(C(F)(F)F)c3nccnc23)C1 [Compound 355, 2-methyl-N-[(3R,5S)-5-methyl-1-[8-(trifluoromethyl)quinoxalin-5-yl]piperidin-3-yl]-2-(1-methylpiperidin-4-yl)propanamide]",< 1000
12,"C[C@H]1C[C@@H](NC(=O)CN2CC(N)C2)CN(c2ccc(C#N)c3nccnc23)C1 [Compound 356, 2-(3-aminoazetidin-1-yl)-N-[(3R,5S)-1-(8-cyanoquinoxalin-5-yl)-5-methylpiperidin-3-yl]acetamide]",< 1000
13,"C[C@H]1C[C@@H](NC(=O)CC2CN(C)C2)CN(c2ccc(C#N)c3nccnc23)C1 [Compound 359, N-[(3R,5S)-1-(8-cyanoquinoxalin-5-yl)-5-methylpiperidin-3-yl]-2-(1-methylazetidin-3-yl)acetamide]",< 1000
14,"C[C@H]1C[C@@H](NC(=O)CC2CN(C)C2)CN(c2ccc(C(F)(F)F)c3ncccc23)C1 [Compound 360, N-[(3R,5S)-5-methyl-1-[8-(trifluoromethyl)quinolin-5-yl]piperidin-3-yl]-2-(1-methylazetidin-3-yl)acetamide]",< 1000
15,"C[C@H]1C[C@@H](NC(=O)CN2CC(N)C2)CN(c2ccc(C(F)(F)F)c3nccnc23)C1 [Compound 361, 2-(3-aminoazetidin-1-yl)-N-((3R,5S)-5-methyl-1-(8-(trifluoromethyl)quinoxalin-5-yl)piperidin-3-yl)acetamide]",< 1000
16,"C[C@H]1C[C@@H](NC(=O)CN2CCCN(C)CC2)CN(c2ccc(C(F)(F)F)c3nccnc23)C1 [Compound 362, 2-(4-methyl-1,4-diazepan-1-yl)-N-[(3R,5S)-5-methyl-1-[8-(trifluoromethyl)quinoxalin-5-yl]piperidin-3-yl]acetamide]",< 1000

row,SMILES,IC50 [nM]
1,"C[C@H]1C[C@@H](NC(=O)CC2CN(C)C2)CN(c2ccc(C(F)(F)F)c3nccnc23)C1 [Compound 363, N-[(3R,5S)-5-methyl-1-[8-(trifluoromethyl)quinoxalin-5-yl]piperidin-3-yl]-2-(1-methylazetidin-3-yl)acetamide]",< 1000
2,"C[C@H]1C[C@@H](NC(=O)CC2CN(C)C2)CN(c2ccc(C(F)F)c3ncccc23)C1 [Compound 364, N-[(3R,5S)-1-[8-(difluoromethyl)quinolin-5-yl]-5-methylpiperidin-3-yl]-2-(1-methylazetidin-3-yl)acetamide]",< 1000
3,"C[C@H]1C[C@@H](NC(=O)CN2CC(N)C2)CN(c2ccc(C(F)F)c3nccnc23)C1 [Compound 365, 2-(3-aminoazetidin-1-yl)-N-[(3R,5S)-1-[8-(difluoromethyl)quinoxalin-5-yl]-5-methylpiperidin-3-yl]acetamide]",1000 to 10000
4,"O=C(NCCN1CCCCC1)C1CCN(c2ccnc3nccnc23)CC1 [Compound 373, 1-Pyrido[2,3-b]pyrazin-8-yl-piperidine-4-carboxylic acid (2-piperidin-1-yl-ethyl)-amide]",1000 to 10000
5,"CCN(CC)CCNCC1CCN(c2cc(C)nc3ccc(F)cc23)CC1 [Compound 374, N,N-diethyl-N′-[1-(6-fluoro-2-methyl-quinolin-4-yl)-piperidin-4-ylmethyl]-ethane-1,2-diamine]",1000 to 10000
6,"CCN(CC)CCNCC1CCN(c2ccnc3ccc(F)cc23)CC1 [Compound 375, N,N-Diethyl-N′-[1-(6-fluoro-quinolin-4-yl)-piperidin-4-ylmethyl]-ethane-1,2-diamine]",1000 to 10000
7,"CCN(CC)CCNCC1CCN(c2ccnc3cc(C(F)(F)F)ccc23)CC1 [Compound 376, N,N-Diethyl-N′-[1-(7-trifluoromethyl-quinolin-4-yl)-piperidin-4-ylmethyl]-ethane-1,2-diamine]",1000 to 10000
8,"CCN(CC)CCNCC1CCN(c2ccnc3ccc(C(F)(F)F)cc23)CC1 [Compound 377, N,N-Diethyl-N′-[1-(6-trifluoromethyl-quinolin-4-yl)-piperidin-4-ylmethyl]-ethane-1,2-diamine]",1000 to 10000
9,"Fc1ccc2nccc(N3CCC(CNCCN4CCCCC4)CC3)c2c1 [Compound 378, [1-(6-Fluoro-quinolin-4-yl)-piperidin-4-ylmethyl]-(2-piperidin-1-yl-ethyl)-amine]",1000 to 10000
10,CCN(CC)CCNC(=O)C1CCN(c2ccnc3nccnc23)CC1 [Compound 379],1000 to 10000
11,"Cc1cc(N2CCC(CNCCN3CCCCC3)CC2)c2cc(F)ccc2n1 [Compound 381, [1-(6-Fluoro-2-methyl-quinolin-4-yl)-piperidin-4-ylmethyl]-(2-piperidin-1-yl-ethyl)-amine]",1000 to 10000
12,"CCN(CC)CCNCC1CCN(c2ccnc3ccc(OC)cc23)CC1 [Compound 382, N,N-Diethyl-N′-[1-(6-methoxy-quinolin-4-yl)-piperidin-4-ylmethyl]-ethane-1,2-diamine]",1000 to 10000
13,"CCN(CC)CCNCC1CCN(c2ccnc3cc(F)ccc23)CC1 [Compound 383, N,N-Diethyl-N′-[1-(7-fluoro-quinolin-4-yl)-piperidin-4-ylmethyl]-ethane-1,2-diamine]",1000 to 10000
14,"CCN(CC)CCNCC1CCN(c2ccnc3ccc(C)cc23)CC1 [Compound 384, N,N-Diethyl-N′-[1-(6-methyl-quinolin-4-yl)-piperidin-4-ylmethyl]-ethane-1,2-diamine]",1000 to 10000
15,"CCN(CC)CCNCC1CCN(c2c(C)c(C)nc3ccc(F)cc23)CC1 [Compound 385, N,N-Diethyl-N′-[1-(6-fluoro-2,3-dimethyl-quinolin-4-yl)-piperidin-4-ylmethyl]-ethane-1,2-diamine]",1000 to 10000
